Reference: patent publication US7863428B2, “Fluorogenic enzyme substrates and methods of preparation” (Tibotec BVBA, priority 2002, dated 2011)

How the values were obtained:
[1] = test system: β-D-glucuronidase from Helix Pommatia type HP-2; assay: Quick test for enzyme recognition of GUS substrates; format: biochemical
Experimental: Dibutyl GUS substrate (compound 27) was tested. First a solution of 2 mg of product (compound 27) in 2 ml pH 8 buffer solution (Merck Titrisol 9888) was made. 1 ml of this solution was kept aside, to the other 1 ml solution 5 μl (500 UNITS) β-D-glucuronidase from Helix Pommatia type HP-2 (Sigma G7017) was added. […] The plate was developed using isooctane/acetone 60:40.

[2] = test system: GUS transfected 293T cells; assay: Enzymatic test in mammalian cells electroporated with pLNCGUS; format: cell-based; conditions: 10 μg/ml
Experimental: FIG. 3. Fluorescent (=GUS transfected) and non-fluorescent 293T cells with the presence of compound 27.
Cells were electroporated in the presence of 10 μg pLNCGUS and after 24 hours, compound 27 (10 mM stock in DMSO) was added to a final concentration of 10 μg/ml. Less than 5% of the cells had taken up the pLNCGUS plasmid.

[3] = test system: GUS reporter enzyme in hair-root cells of a transgenic tobacco plant; assay: Testing substrate in vivo, confocal microscopy of hair-root cells; format: cell-based; conditions: cells not permeabilized
Source text: FIG. 1. Testing substrate (compound 27) in vivo.

fluorescent spot on TLC plate after incubation with GUS enzyme (conversion of non-fluorescent substrate into fluorescent product) ([1]; 2 mg in 2 ml pH 8 buffer, 500 UNITS enzyme per 1 ml, 15 minutes shaking at room temperature) | Structure (SMILES) | reaction in GUS substrate test ([1]; after 30 minutes) | fluorescence of cells in the presence of substrate ([2]; 293T cells electroporated with 10 μg pLNCGUS, substrate added after 24 hours) | fluorescence of cells in the presence of substrate ([2]; cells electroporated in the absence of pLNCGUS) | detection of GUS reporter enzyme in the cell nucleus [3]
– | CCCCCc1ccc(O[C@@H]2O[C@H](C(=O)O)[C@@H](O)[C@H](O)[C@H]2O)c(-c2nc3ccc(CCCCC)cc3c(=O)[nH]2)c1 [compound 24, 1-O-(2-(4-oxo-6-n-pentyl-3H-quinazolinyl)-4-n-pentylphenyl)-β-D-glucuronic acid] | clear positive reaction | – | – | –
clear fluorescent spot | CCCCc1ccc(O[C@@H]2OC(C(=O)O)[C@@H](O)[C@@H](O)C2O)c(-c2nc3ccc(CCCC)cc3c(=O)[nH]2)c1 (some centres unmarked) [compound 27] | – | Fluorescent | weak background fluorescence | can be shown with lipophilic GUS substrate (compound 27) without permeabilizing cells
